The target in this test is HsClpP (Homo sapiens, UniProt Q16740). The test can be described thus: HsClpP enzyme hydrolysis of short peptide substrate AC-WLA-AMC. The note with it: promoting hydrolysis of short peptide substrate by HsClpP, relative to blank control.

Each structure is given as a SMILES string.

The source of these data is patent US20240287071A1, “CLASS OF IMIDAZOLIDINOPYRIMIDONE COMPOUNDS AND USE THEREOF IN TREATMENT OF HSCLPP-MEDIATED DISEASES” (SICHUAN UNIVERSITY, priority 2021, published 2024).

Chain of HsClpP (Q16740 57-277): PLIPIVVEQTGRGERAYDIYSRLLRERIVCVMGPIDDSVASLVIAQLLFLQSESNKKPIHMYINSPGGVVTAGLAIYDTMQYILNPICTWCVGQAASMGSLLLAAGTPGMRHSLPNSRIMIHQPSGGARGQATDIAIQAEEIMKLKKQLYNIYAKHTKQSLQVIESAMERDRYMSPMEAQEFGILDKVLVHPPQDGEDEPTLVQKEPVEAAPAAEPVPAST
Experimental: This study evaluated the regulatory activity of the compounds on HsClpP by examining the hydrolysis effects of HsClpP protein on the AC-WLA-AMC substrate . […] The small molecules and the HsClpP protein solution were added to a flat-bottomed black 96-well plate, with three replicate wells for each group. […] DMSO was used as a negative control instead of small molecules. The multiple of readings at different concentrations against the readings of DMSO group was recorded as an index for evaluation of hydrolysis activity. . . . GraphPad Prism was used to plot the obtained multiple values and calculate the EC50 values.

On to `CCN1CCn2c1nc(=O)c1c2CCN(Cc2ccccc2)C1` [Compound 3, 7-benzyl-3-ethyl-2,3,6,7,8,9-hexahydroimidazo[1,2-a]pyrido[3,4-e]pyrimidin-5(1H)-one], for which the “Regulatory efficacy 1 μM” value is reported as “+ (+ indicating that the increased efficacy is less than 50% of the blank control group)” and the “Regulatory efficacy 10 μM” value is recorded as “+ (+ indicating that the increased efficacy is less than 50% of the blank control group)”.
With `CC(C)CCN1CCn2c1nc(=O)c1c2CCN(Cc2ccccc2)C1` [Compound 4, 7-benzyl-3-isopentyl-2,3,6,7,8,9-hexahydroimidazo[1,2-a]pyrido[3,4-e]pyrimidin-5(1H)-one], the “Regulatory efficacy 1 μM” value is on record as “+ +” and the “Regulatory efficacy 10 μM” value was “+ +”.
Take `O=c1nc2n(c3c1CN(Cc1ccccc1)CC3)CCN2c1ccccc1` [Compound 9, 7-benzyl-3-phenyl-2,3,6,7,8,9-hexahydroimidazo[1,2-a]pyrido[3,4-e]pyrimidin-5(1H)-one]: the “Regulatory efficacy 1 μM” value is listed as “+ (+ indicating that the increased efficacy is less than 50% of the blank control group)” and the “Regulatory efficacy 10 μM” value is given as “+ +”.
Taken in the same sequence, the figures for `O=c1nc2n(c3c1CN(Cc1ccccc1)CC3)CCN2CCc1ccccc1` [Compound 10, 7-benzyl-3-(phenylethyl)-2,3,6,7,8,9-hexahydroimidazo[1,2-a]pyrido[3,4-e]pyrimidin-5(1H)-one] were “+ +” and “+ +”.
Taken in the same sequence, the figures for `O=c1nc2n(c3c1CN(Cc1ccccc1)CC3)CCN2Cc1cccnc1` [Compound 23, 7-benzyl-3-(3-pyridinylmethyl)-2,3,6,7,8,9-hexahydroimidazo[1,2-a]pyrido[3,4-e]pyrimidin-5(1H)-one] were “+ (+ indicating that the increased efficacy is less than 50% of the blank control group)” and “+ +”.
For `O=c1nc2n(c3c1CN(Cc1ccccc1)CC3)CCN2Cc1ccncc1` [Compound 24, 7-benzyl-3-(4-pyridinylmethyl)-2,3,6,7,8,9-hexahydroimidazo[1,2-a]pyrido[3,4-e]pyrimidin-5(1H)-one], in that order: “+ (+ indicating that the increased efficacy is less than 50% of the blank control group)” and “+ +”.
`O=c1nc2n(c3c1CN(Cc1ccccc1)CC3)CCN2Cc1ccco1` [Compound 25, 7-benzyl-3-(2-furfuryl)-2,3,6,7,8,9-hexahydroimidazo[1,2-a]pyrido[3,4-e]pyrimidin-5(1H)-one]: the “Regulatory efficacy 1 μM” value is reported as “+ (+ indicating that the increased efficacy is less than 50% of the blank control group)” and the “Regulatory efficacy 10 μM” value is on record as “+ +”.
In the case of `Cc1ccccc1CN1CCn2c1nc(=O)c1c2CCN(C(=O)OC(C)(C)C)C1` [Compound 27, 7-tert-butoxycarbonyl-3-(2-methylbenzyl)-2,3,6,7,8,9-hexahydroimidazo[1,2-a]pyrido[3,4-e]pyrimid in-5(1H)-one], the “Regulatory efficacy 1 μM” value is listed as “+ +” and the “Regulatory efficacy 10 μM” value was “+ +”.
Regarding `Cc1ccccc1CN1CCn2c1nc(=O)c1c2CCN(CC(C)C)C1` [Compound 29, 7-isobutyl-3-(2-methylbenzyl)-2,3,6,7,8,9-hexahydroimidazo[1,2-a]pyrido[3,4-e]pyrimidin-5(1H)-one], the “Regulatory efficacy 1 μM” value is “+ (+ indicating that the increased efficacy is less than 50% of the blank control group)” and the “Regulatory efficacy 10 μM” value was “+ (+ indicating that the increased efficacy is less than 50% of the blank control group)”.
With `Cc1ccccc1CN1CCn2c1nc(=O)c1c2CCN(CC2CC2)C1` [Compound 30], the “Regulatory efficacy 1 μM” value is listed as “+ (+ indicating that the increased efficacy is less than 50% of the blank control group)” and the “Regulatory efficacy 10 μM” value is given as “+ (+ indicating that the increased efficacy is less than 50% of the blank control group)”.
In the case of `Cc1ccccc1CN1CCn2c1nc(=O)c1c2CCN(CC2CCCCC2)C1` [Compound 31, 7-cyclohexylmethyl-3-(2-methylbenzyl)-2,3,6,7,8,9-hexahydroimidazo[1,2-a]pyrido[3,4-e]pyrimidin-5(1H)-one], the “Regulatory efficacy 1 μM” value is reported as “+ (+ indicating that the increased efficacy is less than 50% of the blank control group)” and the “Regulatory efficacy 10 μM” value is recorded as “+ +”.
Taken in the same sequence, the figures for `Cc1ccc(CN2CCc3c(c(=O)nc4n3CCN4Cc3ccccc3C)C2)cc1` [Compound 33, 3-(2-methylbenzyl)-7-(4-methylbenzyl)-2,3,6,7,8,9-hexahydroimidazo[1,2-a]pyrido[3,4-e]pyrimidin-5(1H)-one] were “+ +” and “+ +”.
Regarding `Cc1ccccc1CN1CCn2c1nc(=O)c1c2CCN(Cc2ccccc2C#N)C1` [Compound 34, 2-((3-(2-methylbenzyl)-5-oxo-2,3,6,7,8,9-hexahydroimidazo[1,2-a]pyrido[3,4-e]pyrimidin-7(6H)-yl)methyl)benzonitrile], the “Regulatory efficacy 1 μM” value is “+ +” and the “Regulatory efficacy 10 μM” value was “+ +”.
As to `Cc1ccccc1CN1CCn2c1nc(=O)c1c2CCN(Cc2ccc(F)c(F)c2)C1` [Compound 36, 7-(3,4-difluorobenzyl)-3-(2-methylbenzyl)-2,3,6,7,8,9-hexahydroimidazo[1,2-a]pyrido[3,4-e]pyrimidin-5(1H)-one], the “Regulatory efficacy 1 μM” value is “+ +” and the “Regulatory efficacy 10 μM” value was “+ +”.
With `Cc1ccccc1CN1CCn2c1nc(=O)c1c2CCN(Cc2ccc(F)cc2F)C1` [Compound 37, 7-(2,4-difluorobenzyl)-3-(2-methylbenzyl)-2,3,6,7,8,9-hexahydroimidazo[1,2-a]pyrido[3,4-e]pyrimidin-5(1H)-one], the “Regulatory efficacy 1 μM” value was “+ (+ indicating that the increased efficacy is less than 50% of the blank control group)” and the “Regulatory efficacy 10 μM” value is recorded as “+ +”.
For `Cc1ccccc1CN1CCn2c1nc(=O)c1c2CCN(Cc2ccc(F)cc2)C1` [Compound 38, 7-(4-fluorobenzyl)-3-(2-methylbenzyl)-2,3,6,7,8,9-hexahydroimidazo[1,2-a]pyrido[3,4-e]pyrimidin-5(1H)-one], in that order: “+ +” and “+ +”.
Taken in the same sequence, the figures for `Cc1ccccc1CN1CCn2c1nc(=O)c1c2CCN(C(=O)Cc2ccccc2)C1` [Compound 40, 3-(2-methylbenzyl)-7-(2-phenylacetyl)-2,3,6,7,8,9-hexahydroimidazo[1,2-a]pyrido[3,4-e]pyrimidin-5(1H)-one] were “+ (+ indicating that the increased efficacy is less than 50% of the blank control group)” and “+ (+ indicating that the increased efficacy is less than 50% of the blank control group)”.
Taken in the same sequence, the figures for `Cc1ccccc1CN1CCn2c1nc(=O)c1c2CCN(CCCCc2ccccc2)C1` [Compound 41, 3-(2-methylbenzyl)-7-(4-phenylbutyl)-2,3,6,7,8,9-hexahydroimidazo[1,2-a]pyrido[3,4-e]pyrimidin-5 (1H)-one] were “+ (+ indicating that the increased efficacy is less than 50% of the blank control group)” and “+ (+ indicating that the increased efficacy is less than 50% of the blank control group)”.
As for `Cc1ccccc1CN1CCn2c1nc(=O)c1c2CCN(CCc2ccccc2)C1` [Compound 42, 3-(2-methylbenzyl)-7-phenethyl-2,3,6,7,8,9-hexahydroimidazo[1,2-a]pyrido[3,4-e]pyrimidin-5(1H)-one], the “Regulatory efficacy 1 μM” value is recorded as “+ (+ indicating that the increased efficacy is less than 50% of the blank control group)” and the “Regulatory efficacy 10 μM” value is “+ +”.
Consider `Cc1ccccc1CN1CCn2c1nc(=O)c1c2CCN(Cc2cccnc2)C1` [Compound 43, 3-(2-methylbenzyl)-7-(pyridin-3-methyl)-2,3,6,7,8,9-hexahydroimidazo[1,2-a]pyrido[3,4-e]pyrimidi n-5(1H)-one], for which the “Regulatory efficacy 1 μM” value is on record as “+ (+ indicating that the increased efficacy is less than 50% of the blank control group)” and the “Regulatory efficacy 10 μM” value is “+ +”.
For `Cc1ccccc1CN1CCn2c1nc(=O)c1c2CCN(Cc2ccncc2)C1` [Compound 44, 3-(2-methylbenzyl)-7-(pyridin-4-methyl)-2,3,6,7,8,9-hexahydroimidazo[1,2-a]pyrido[3,4-e]pyrimidi n-5(1H)-one], in that order: “+ (+ indicating that the increased efficacy is less than 50% of the blank control group)” and “+ +”.
Taken in the same sequence, the figures for `Cc1ccccc1CN1CCn2c1nc(=O)c1c2CCN(c2nncs2)C1` [Compound 45, 3-(2-methylbenzyl)-7-(1,3,4-thiadiazol-2-yl)-2,3,6,7,8,9-hexahydroimidazo[1,2-a]pyrido[3,4-e]pyri midin-5(1H)-one] were “+ (+ indicating that the increased efficacy is less than 50% of the blank control group)” and “+ (+ indicating that the increased efficacy is less than 50% of the blank control group)”.
Consider `Cc1ccccc1CN1CCCn2c1nc(=O)c1c2CCN(Cc2ccccc2)C1` [Compound 46, 3-Benzyl-7-(2-methylbenzyl)-1,2,3,4,7,8,9, 10-octahydro-5H-pyrido[3,4-e]pyrimido[1,2-a] pyrimidin-5-one], for which the “Regulatory efficacy 1 μM” value is on record as “+ (+ indicating that the increased efficacy is less than 50% of the blank control group)” and the “Regulatory efficacy 10 μM” value is “+ +”.
For `Cc1ccccc1CN1CCn2c1nc(=O)c1c2C(F)(F)CN(Cc2ccccc2)C1` [Compound 47, 7-Benzyl-9,9-difluoro-3-(2-methylbenzyl)-2,3,6,7,8,9-hexahydroimidazo[1,2-a]pyrido[3,4-e]pyrimid in-5(1H)-one], the “Regulatory efficacy 1 μM” value is “+ +” and the “Regulatory efficacy 10 μM” value was “+ +”.
For `Cc1cccc(CN2CCn3c2nc(=O)c2c3C(F)(F)CN(Cc3ccccc3)C2)c1` [Compound 48, 7-Benzyl-9,9-difluoro-3-(3-methylbenzyl)-2,3,6,7,8,9-hexahydroimidazo[1,2-a]pyrido[3,4-e]pyrimid in-5(1H)-one], the “Regulatory efficacy 1 μM” value is recorded as “+ +” and the “Regulatory efficacy 10 μM” value is on record as “+ +”.
